Measurements: patent US7582651B2, “Pyrrolopyridine derivative and use thereof” (Takeda Pharmaceutical Company Limited, priority 2002, dated 2009)

Legend:
[1] = tested on: ICR male mice; test: Mouse eye dropping test (stimulating and desensitizing activity, capsaicin challenge); format: in vivo; settings: 0.01 ml dropped to the eye; capsaicin (0.3 μg) 1 hour after initial treatment; desensitizing activity
Experimental: Eight of 4 to 5 weeks old ICR male mice (Japan SLC Inc.) were used in a group in this test. 0.01 ml of the drug was added dropwise to the eye, and the time when the mouse continued to close the eye was measured. The stimulation of the drug was evaluated as positive when the time is more than 10 seconds, and as negative when the time is 10 seconds or less. At 1 hour after the initial treatment, a solution of capsaicin (0.3 μg) was added dropwise to the eye to evaluate whether the stimulation is or not, and examined the desensitizing activity of the compound. The stimulating and desensitizing activity of the drug were calculated as a value of ED50. The drug was dissolved in a mixture of 10% ethanol, 20% Tween 80 and 70% physiological saline solution.

[2] = tested on: vanilloid receptor-1 (VR1) expressed in CHO-K1 cells (RVR1/CHO and HVR1/CHO strains); test: Evaluation of compounds based on cell death (survival rate of VR1-expressing CHO strains); design: species or system rat, human; settings: 1 μM test compound, 3 hours reaction, Alama Blue, cultured 20 hours; strain (RVR1/CHO or HVR1/CHO) not stated
Experimental: CHO-K1 cells (ATCC No.: CCL-61) were grown in a 150 cm^2 of a cell culture flask (Corning Coaster) using a Ham's F12 medium (GIBCO BRL) containing 10% fetal bovine serum (GIBCO BRL) and were collected from the flask by using 0.5 g/L trypsin-0.2 g/L EDTA (GIBCO BRL). The cells were washed with PBS (GIBCO BRL), centrifuged (1000 rpm, 5 minutes) and suspended in PBS. Then, the DNA was introduced into the cells using Gene Pulser (Bio-Rad Laboratories Inc.) under the following conditions. Namely, 1×10^7 cells and 15 μg of plasmid pRVR1 for expression of rat VR1 were added into a cuvette having a 0.4 cm of gap, and electroporation was carried out at an electric voltage of 0.25 kV and a capacitance of 960 μF. Subsequently, the cells were transferred into the Ham's F12 medium containing 10% fetal bovine serum, and incubated for 24 hours. The cells were then collected, centrifuged and suspended in Ham's F12 medium containing 10% fetal bovine serum and Geneticin (GIBCO BRL) at a concentration of 500 μg/ml. […]
Subsequently, the resulting Geneticin-resistant strains were cultured in the 96-well plates (Corning Coaster). […] Subsequently, the radioactivity was measured with TopCount (Packard Industry Company, Inc.) to select RVR1/CHO strains of which calcium concentration in the cells is increased when capsaicin is added thereto. […]

[3] = tested on: SD male rats; test: Measurement of bladder volume (saline infusion under urethane anesthesia); format: in vivo, rat; settings: sc, 12 hours after administration
Experimental: Measurement of Mouse Bladder Volume
Six or seven of 7 weeks old SD male rats were used in a group in this test. At 12 hours after the subcutaneous administration of the drug, the abdomen of rat was cut open under urethane anesthesia (1.2 g/kg, ip) to expose the bladder. Physiological saline solution was infused into the bladder at the rate of 0.1 ml/minutes to check excretion reflection. All of the urine was drained off, and the physiological saline solution was infused again, and then, the bladder volume of mouse was calculated by measuring the time to urination.

[4] = tested on: ICR male mice; test: Tail-flick test (55° C. water bath); format: in vivo, mouse; settings: po
Experimental: Eight of 5 weeks old ICR male mice were used in a group in this test. The tail of the mouse was dipped by about 2 cm from the end into water in a water bath warmed to 55° C., and the latency to lift the tail up was measured. The latency was previously measured before the administration of the drug, and the mouse having the latency of 2 seconds or less was selected and used in the test. The drug was administered orally, and the latency was measured after 3, 6 and 24 hours. Cut-off time was set to 5 seconds. The drug was suspended in 0.5% methylcellulose, and the dose was 20 ml/kg BW.

| SMILES | ED50 [1] [µg] | survival rate of the cells [2] [%] | Bladder capacity ([3]; 3 mg/kg) [mL] | Bladder capacity ([3]; 10 mg/kg) [mL] | Latency ([4]; 10 mg/kg, 3 h after administration) [s] | Latency ([4]; 10 mg/kg, 6 h after administration) [s] | Latency ([4]; 10 mg/kg, 24 h after administration) [s] | Latency ([4]; 10 mg/kg, Pre (before administration)) [s] | Latency ([4]; 30 mg/kg, 3 h after administration) [s] | Latency ([4]; 30 mg/kg, 6 h after administration) [s] | Latency ([4]; 30 mg/kg, 24 h after administration) [s] | Latency ([4]; 30 mg/kg, Pre (before administration)) [s] |
| --- | --- | --- | --- | --- | --- | --- | --- | --- | --- | --- | --- | --- |
| Cc1cc(C)c2c(C#N)c(/C=C/C(=O)N[C@@H]3CCOC(C)(C)C3)n([C@H]3CCCc4ccccc43)c2n1 [Example 74, (2E)-3-{3-cyano-4,6-dimethyl-1-[(1S)-1,2,3,4-tetrahydronaphthalen-1-yl]-1H-pyrrolo[2,3-b]pyridin-2-yl}-N-[(4R)-2,2-dimethyltetrahydro-2H-pyran-4-yl]prop-2-enamide] | 0.55 | 2 |  |  |  |  |  |  |  |  |  |  |
| Cc1cc(C)c2c(C#N)c(/C=C/C(=O)NC3CCOC(C)(C)C3)n(C3CCc4ccccc43)c2n1 (stereo not drawn) [Example 51, (2E)-3-[3-cyano-1-(indan-1-yl)-4,6-dimethyl-1H-pyrrolo[2,3-b]pyridin-2-yl]-N-(2,2-dimethyltetrahydro-2H-pyran-4-yl)acrylamide] |  |  | 1.76 ± 0.37 | 1.57 ± 0.23 | 0.85 ± 0.10 | 0.64 ± 0.04 | 0.78 ± 0.04 | 0.55 ± 0.02 | 2.31 ± 1.13 | 2.04 ± 1.15 | 3.36 ± 1.02 | 0.70 ± 0.07 |
